We go through 2 molecules from USRE48842E1, “Pyrimido-pyrrolo-oxazine-dione compound inhibitors of the cystic fibrosis transmembrane conductance regulator protein and uses therefor” (The Regents of the University of California, priority 2011, dated 2021).

Series [1] in a line: Mouse pharmacokinetics and renal accumulation (LC/MS). The series is classed as in vivo. The protocol:
Mouse Pharmacokinetics and Renal Accumulation—A compound of structure (I) was formulated at 1 mg/mL in 5% DMSO, 2.5% Tween-80 and 2.5% PEG400 in H2O, based on formulations used for compounds of similar polarity and chemical properties. Male mice in a CD1 genetic background (age 8-10 weeks, 25-35 g) were administered 300 μL of the BPO-27 formulation by intraperitoneal injection. At specified times kidneys were removed following renal arterial perfusion with PBS. Kidneys were weighed, mixed with acetic acid (100 μl per 1 g tissue) and ethyl acetate (10 mL per 1 g tissue), and homogenized. The homogenate was centrifuged at 3,000 rpm for 15 min. Calibration standards were prepared in kidney homogenates from control mice to which was added known amounts of BPO-27. The ethyl acetate-containing supernatant was dried under nitrogen and the residue was reconstituted in acetonitrile:H2O (3:1) containing 0.1% formic acid. For analysis of blood and urine, fluids were diluted with equal volume of water and extracted with ethyl acetate. LC/MS analysis was carried out as described herein.
PPQ-102 was undetectable in serum, kidney, and urine at 30-60 min after intravenous bolus administration of 300 μg PPQ-102 in mice using an LC/MS assay with sensitivity better than 100 nM. […] To improve on the drug-like properties of PPQ-102, a series of compound analogs were synthesized and tested.
BPO-27 pharmacokinetics in mice was measured following bolus intraperitoneal administration in an aqueous formulation in 5% DMSO, 2.5% Tween-80 and 2.5% PEG400 in water. BPO-27 was measured by LC/MS in kidney, blood and urine. […] The assay was linear with a detection sensitivity of better than 100 nM BPO-27. […] FIG. 11C summarizes the deduced BPO-27 concentrations in kidney, blood and urine over time. The t1/2 for disappearance of the original compound was approximately 2 h.

The next series is described as follows: Aqueous solubility. The series is classed as physicochemical.
The nature of series [2]: In vitro metabolism in hepatic microsomes (LC/MS). As to conditions: for compound disappearance (loss) in hepatic microsomes: 30 min, 37° C. The series is classed as in vitro ADME, rat. The protocol: (§1) In Vitro Metabolism in Hepatic Microsomes—A compound of structure (I) was incubated for specified times at 37° C. with rat liver microsomes (e.g., 1 mg protein/ml; Sigma-Aldrich, St. Louis, Mo.) in potassium phosphate buffer (100 mM) containing NADPH (0 or 1 mM). The mixture was then chilled on ice, and 0.5 ml of ice-cold ethyl acetate was added. Samples were centrifuged for 15 min at 3,000 rpm, and the supernatant was evaporated to dryness under nitrogen. The residue was dissolved in 150 μl mobile phase (acetonitrile:water 3:1, containing 0.1% formic acid) for LC/MS analysis. Reverse-phase HPLC separations were carried out using a Waters C18 column (2.1×100 mm, […]) equipped with a solvent delivery system (Waters model 2690, Milford, Mass.). The solvent system consisted of a linear gradient from 5 to 95% acetonitrile run over 16 min (0.2 mL/min flow rate). Mass spectra were acquired on an Alliance HT 2790+ZQ mass spectrometer using negative ion detection.
as §1, with “Liquid Chromatography/Mass Spectrometry—Compounds (each at 5 μM) were” for “In Vitro Metabolism in Hepatic Microsomes—A compound of structure (I) was”, “(1” for “(e.g., 1”, “150” for “150 μl”, “detection, scanning from 150 to 1500 Da. The electrospray ion source parameters were as follows: capillary voltage 3.5 kV (positive ion mode), cone voltage 37 V, source temperature 120° C., desolvation temperature 250° C., cone gas flow 25 L/h, and dessolvation gas flow 350 L/h.” for “detection.”
PPQ-102 is a small-molecule inhibitor of CFTR chloride conductance with efficacy in preventing and reversing cyst formation in an organ culture model of PKD (see, e.g., Tradtrantip et al., J. Med. Chem. 2009, supra; Int'l Patent Appl. Publication No. WO 2011/019737). Preliminary analysis of the metabolic stability and aqueous solubility of PPQ-102, indicated poorer metabolic stability and lower water solubility (˜2 μM in albumin-free saline) than desired for optimal drugability. In vitro metabolic stability was determined by compound incubation with hepatic microsomes at 37° C. for specified times in the absence vs. presence of NADPH, following by LC/MS analysis. Shown in FIG. 6A is PPQ-102 disappearance in hepatic microsomes in the presence of NADPH, with ˜60% disappearance in 30 min.

In the next series the target is human wildtype CFTR (Homo sapiens, UniProt P13569). In words: Short-circuit current analysis of CFTR inhibition in CFTR-expressing FRT cells. The series is classed as cell-based. More on the design: expressed in transfected cells; host or cells: Fischer rat thyroid (FRT) epithelial cells on Snapwell inserts. On the procedure:
Short-Circuit Current—Snapwell inserts containing CFTR-expressing FRT cells were mounted in an Ussing chamber. The hemichambers contained 5 mL of buffer containing 75 mM NaCl and 75 mM Na gluconate (apical) and 150 mM NaCl (basolateral) (pH 7.3), and the basolateral membrane was permeabilized with 250 μg/mL amphotericin B, as described (see, e.g., Sonawane et al., FASEB J 2006, supra). Short-circuit current was recorded continuously using a DVC-1000 voltage clamp (World Precision Instruments) using Ag/AgCl electrodes and 3 M KCl agar bridges.
Current was measured in CFTR-expressing FRT cells in which the basolateral membrane was permeabilized and in the presence of a transepithelial chloride concentration gradient, so that current is a quantitative linear measure of CFTR function. CFTR was activated by forskolin, followed by serial additions of increasing concentrations of test compounds.
CFTR inhibition potency was measured by short-circuit current analysis in FRT epithelial cells expressing human CFTR in presence of a transepithelial chloride gradient and in which the basolateral membrane was permeabilized with amphotericin B. Under these conditions short-circuit current is proportional to CFTR chloride conductance.

The mark [3] stands for this setting: short-circuit current, FRT cells expressing human CFTR, forskolin-stimulated, read-out: IC50 for inhibition of CFTR chloride conductance.

≈ marks a conversion by molar mass, not a printed value. Like-named read-outs stand apart in the source and are kept apart here. Some results are limits rather than exact numbers.

human wildtype CFTR, sequence (P13569 whole entry): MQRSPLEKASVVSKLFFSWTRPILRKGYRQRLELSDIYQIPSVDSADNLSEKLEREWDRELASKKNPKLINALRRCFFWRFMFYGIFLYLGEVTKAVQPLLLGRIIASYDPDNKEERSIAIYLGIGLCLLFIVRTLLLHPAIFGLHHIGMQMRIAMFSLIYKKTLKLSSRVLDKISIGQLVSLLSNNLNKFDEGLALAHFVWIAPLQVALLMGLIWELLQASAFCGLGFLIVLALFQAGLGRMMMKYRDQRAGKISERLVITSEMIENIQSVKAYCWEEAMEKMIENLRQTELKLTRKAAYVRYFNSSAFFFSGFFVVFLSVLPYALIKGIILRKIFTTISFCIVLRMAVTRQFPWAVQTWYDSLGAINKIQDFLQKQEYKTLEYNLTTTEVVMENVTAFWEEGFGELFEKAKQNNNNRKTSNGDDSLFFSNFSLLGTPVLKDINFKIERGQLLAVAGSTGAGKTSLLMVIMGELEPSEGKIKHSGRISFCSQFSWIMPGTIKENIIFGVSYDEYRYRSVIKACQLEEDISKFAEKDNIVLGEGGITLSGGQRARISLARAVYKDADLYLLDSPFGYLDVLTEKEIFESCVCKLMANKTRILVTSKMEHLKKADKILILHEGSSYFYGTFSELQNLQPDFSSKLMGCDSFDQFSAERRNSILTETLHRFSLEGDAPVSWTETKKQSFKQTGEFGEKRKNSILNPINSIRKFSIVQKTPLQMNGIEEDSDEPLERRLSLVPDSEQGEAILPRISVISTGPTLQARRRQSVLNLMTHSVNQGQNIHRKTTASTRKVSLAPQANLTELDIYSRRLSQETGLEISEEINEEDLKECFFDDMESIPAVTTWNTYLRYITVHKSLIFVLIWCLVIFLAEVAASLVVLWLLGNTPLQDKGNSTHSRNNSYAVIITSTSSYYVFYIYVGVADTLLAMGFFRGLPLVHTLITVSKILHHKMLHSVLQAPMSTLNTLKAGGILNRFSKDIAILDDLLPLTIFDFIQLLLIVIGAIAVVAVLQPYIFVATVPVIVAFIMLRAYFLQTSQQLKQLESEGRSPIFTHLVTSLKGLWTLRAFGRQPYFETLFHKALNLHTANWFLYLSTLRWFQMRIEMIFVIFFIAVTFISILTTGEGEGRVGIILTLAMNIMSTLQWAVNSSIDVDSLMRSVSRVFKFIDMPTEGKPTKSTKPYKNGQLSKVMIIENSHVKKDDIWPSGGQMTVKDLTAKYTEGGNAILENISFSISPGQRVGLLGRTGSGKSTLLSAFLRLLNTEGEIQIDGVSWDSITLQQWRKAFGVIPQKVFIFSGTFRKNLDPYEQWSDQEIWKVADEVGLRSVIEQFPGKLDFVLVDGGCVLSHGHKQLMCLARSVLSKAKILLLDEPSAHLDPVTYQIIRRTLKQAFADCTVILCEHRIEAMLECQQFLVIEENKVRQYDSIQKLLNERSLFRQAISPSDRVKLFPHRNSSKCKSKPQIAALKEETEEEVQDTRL

For the molecule `Cn1c(=O)c2c(-c3ccccc3)n3c(c2n(C)c1=O)C(c1ccc(Br)o1)Oc1ccc(C(=O)O)cc1-3` (racemic) [BPO-27, 6-(5-Bromofuran-2-yl)-7,9-dimethyl-8,10-dioxo-11-phenyl-7,8,9,10-tetrahydro-6H-benzo[b]pyrimido[4′,5′:3,4]pyrrolo[1,2-d][1,4]oxazine-2-carboxylic acid], the half-life in series [1] (male, CD1, mouse, in vivo, ip, 300 μg, mice, bolus intraperitoneal administration, read-out: t1/2 for disappearance of the original compound (converted)) was ~2 h. Moreover, in series [1] (mice, for many hours following single intraperitoneal dose), the “compound concentration in kidney, blood and urine” value was “greater than 4 nM”. The solubility – broadly, how much of the substance goes into solution per volume – in “Aqueous solubility” (pH 7.4 aqueous phosphate buffer, read-out: solubility) stood at 17 µM (≈ 9.32 µg/mL). In series [2] (in the presence of NADPH), the “compound disappearance (loss) in hepatic microsomes” value is < 5% and the “metabolic stability in hepatic microsomes (in words)” value is “excellent stability”. The 50% inhibitory concentration (IC50) (as a rule, the concentration at which inhibition is half-maximal) on human wildtype CFTR (Determined by short-circuit current assay, read-out: IC50 (μM)^B) worked out at 0.008 µM. For the same molecule, the IC50 on human wildtype CFTR (setting [3]) is ~0.008 µM.
As to `Cc1ccc(C2Nc3ccccc3-n3c(-c4ccccc4)c4c(=O)n(C)c(=O)n(C)c4c32)o1` (stereo not shown) [PPQ-102, 7,9-Dimethyl-6-(5-methylfuran-2-yl)-11-phenyl-5,6-dihydropyrimido[4′,5′-3,4]pyrrolo[1,2-a]quinoxaline-8,10-(7H,9H)-dione, reference compound], the “compound in serum, kidney, and urine” value in series [1] (30-60 min after intravenous bolus of 300 μg in mice, LC/MS sensitivity better than 100 nM) is “undetectable”. In addition, the solubility in “Aqueous solubility” (albumin-free saline, saline or isotonic, read-out: water solubility) is ~2 µM (≈ 0.877 µg/mL). In addition, the “compound disappearance (loss) in hepatic microsomes” value in series [2] (in the presence of NADPH) is reported as ~60%. Further, the “compound metabolized in hepatic microsomes” value in series [2] (4 h, in the presence of NADPH) is recorded as > 75%. Besides, in series [2] (in the absence of NADPH), the “compound loss in hepatic microsomes” value is on record as “No loss”. Also, at human wildtype CFTR (setting [3]), the IC50 amounted to 0.1 µM.
